# Patent US20260285850A1, “SUBSTITUTED OXAZOLIDINONES AND IMIDAZOLINONES AS HERBICIDES” (FMC CORPORATION, priority 2023, published 2026)
# How the values were obtained:
# Type in all cases: in vivo
# corn (Zea mays) [1] = assay: Test A postemergence application, visual injury rating 0-100
# Method in brief: (§1)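 Rating: visual, day 10, untreated plants as reference, 0 no effect to 100 full control. Plants were in loam-sand and were treated either preemergence via directed soil spray or postemergence at the one- to two-leaf stage.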
# [2] = test system: galium (catchweed bedstraw, Galium aparine); assay: as above
# Method in brief: as §1
# [3] = test system: palmer (palmer amaranth, palmer pigweed, Amaranthus palmeri); assay: as above
# Method in brief: as §1
# [4] = test system: blackgrass (Alopecurus myosuroides); assay: as above
# Method in brief: as §1
# [5] = test system: oat, wild (wild oat, Avena fatua); assay: as above
# Method in brief: as §1
# [6] = test system: green foxtail (Setaria viridis); assay: as above
# Method in brief: as §1
# [7] = test system: ragweed (common ragweed, Ambrosia artemisiifolia); assay: as above
# Method in brief: as §1
# kochia (Bassia scoparia) [8] = assay: as above
# Method in brief: as §1
# [9] = test system: horseweed (Erigeron canadensis); assay: as above
# Method in brief: as §1
# soybean (Glycine max) [10] = assay: as above
# Method in brief: as §1
# [11] = test system: wheat (Triticum aestivum); assay: as above
# Method in brief: as §1
# [12] = test system: barnyardgrass (Echinochloa crus-galli); assay: as above
# Method in brief: as §1
# [13] = test system: ryegrass, Italian (italian ryegrass, Lolium multiflorum); assay: as above
# Method in brief: as §1
# rice (Oryza sativa) = assay: Test B flooded paddy test, visual plant response rating 0-100; conditions: 250 g ai/ha, Flood, applied to paddy water, evaluated after 13 days
# Method in brief: (§2)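 Paddy-water application: test compounds went directly into water flooded 3 cm above the soil surface, with plants at 2 leaves. After a 13-day greenhouse period, responses were judged by eye relative to controls; a dash marks an untested entry.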
# [14] = test system: sedge, umbrella (small-flower umbrella sedge, Cyperus difformis); assay: as above; conditions: 250 g ai/ha, Flood, applied to paddy water, evaluated after 13 days
# Method in brief: as §2
# [15] = test system: ducksalad (Heteranthera limosa); assay: as above; conditions: 250 g ai/ha, Flood, applied to paddy water, evaluated after 13 days
# Method in brief: as §2
# [16] = test system: barnyardgrass (Echinochloa crusgalli); assay: as above; conditions: 250 g ai/ha, Flood, applied to paddy water, evaluated after 13 days
# Method in brief: as §2
# corn (Zea mays) [17] = assay: Test A preemergence soil spray, visual injury rating 0-100; conditions: 10 days
# Method in brief: as §1
# [18] = test system: palmer (palmer amaranth, palmer pigweed, Amaranthus palmeri); assay: as above; conditions: 10 days
# Method in brief: as §1
# [19] = test system: blackgrass (Alopecurus myosuroides); assay: as above; conditions: 10 days
# Method in brief: as §1
# [20] = test system: oat, wild (wild oat, Avena fatua); assay: as above; conditions: 10 days
# Method in brief: as §1
# [21] = test system: green foxtail (Setaria viridis); assay: as above; conditions: 10 days
# Method in brief: as §1
# [22] = test system: ragweed (common ragweed, Ambrosia artemisiifolia); assay: as above; conditions: 10 days
# Method in brief: as §1
# kochia (Bassia scoparia) [23] = assay: as above; conditions: 10 days
# Method in brief: as §1
# soybean (Glycine max) [24] = assay: as above; conditions: 10 days
# Method in brief: as §1
# [25] = test system: wheat (Triticum aestivum); assay: as above; conditions: 10 days
# Method in brief: as §1
# [26] = test system: barnyardgrass (Echinochloa crus-galli); assay: as above; conditions: 10 days
# Method in brief: as §1
# [27] = test system: ryegrass, Italian (italian ryegrass, Lolium multiflorum); assay: as above; conditions: 10 days
# Method in brief: as §1
# [28] = 62 g ai/ha, postemergence, 10 days, 0 = no effect, 100 = complete control
# [29] = Postemergence, 16 g ai/ha, greenhouse 10 days, 0 no effect, 100 complete control
# [30] = 62 g ai/ha, 0 = no effect, 100 = complete control
smiles,measurement,setting,value
CC1(C(=O)NC2C=CC(C(=O)O)C2)CN(c2cc(Cl)c(F)c(Cl)c2)C(=O)O1 (stereo not shown) [Compound 124],Corn plant response rating (0-100),corn (Zea mays) [1]; [28],100
same,Corn plant response rating (0 to 100 scale),corn (Zea mays) [1]; [29],60
same,Galium plant response rating (0-100),[2]; [28],90
same,Galium plant response rating (0 to 100 scale),[2]; [29],70
same,"Pigweed, Palmer plant response rating (0-100)",[3]; [28],70
same,"Pigweed, Palmer plant response rating (0 to 100 scale)",[3]; [29],50
same,Blackgrass plant response rating (0-100),[4]; [28],90
same,Blackgrass plant response rating (0 to 100 scale),[4]; [29],80
same,"Oat, Wild plant response rating (0-100)",[5]; [28],90
same,"Oat, Wild plant response rating (0 to 100 scale)",[5]; [29],30
same,"Foxtail, Green plant response rating (0-100)",[6]; [28],80
same,"Foxtail, Green plant response rating (0 to 100 scale)",[6]; [29],10
same,Ragweed plant response rating (0-100),[7]; [28],20
same,Ragweed plant response rating (0 to 100 scale),[7]; [29],0
same,Kochia plant response rating (0-100),kochia (Bassia scoparia) [8]; [28],90
same,Kochia plant response rating (0 to 100 scale),kochia (Bassia scoparia) [8]; [29],30
same,Horseweed plant response rating (0-100),[9]; [28],60
same,Horseweed plant response rating (0 to 100 scale),[9]; [29],0
same,Soybean plant response rating (0-100),soybean (Glycine max) [10]; [28],70
same,Soybean plant response rating (0 to 100 scale),soybean (Glycine max) [10]; [29],40
same,Wheat plant response rating (0-100),[11]; [28],90
same,Wheat plant response rating (0 to 100 scale),[11]; [29],80
same,Barnyardgrass plant response rating (0-100),[12]; [28],90
same,Barnyardgrass plant response rating (0 to 100 scale),[12]; [29],70
same,"Ryegrass, Italian plant response rating (0-100)",[13]; [28],90
same,"Ryegrass, Italian plant response rating (0 to 100 scale)",[13]; [29],30
same,"Plant response rating, Rice (0 to 100 scale, 0 is no effect and 100 is complete control)",rice (Oryza sativa),15
same,"Plant response rating, Sedge, Umbrella (0 to 100 scale, 0 is no effect and 100 is complete control)",[14],30
same,"Plant response rating, Ducksalad (0 to 100 scale, 0 is no effect and 100 is complete control)",[15],85
same,"Plant response rating, Barnyardgrass (0 to 100 scale, 0 is no effect and 100 is complete control)",[16],10
same,Corn plant response rating,"corn (Zea mays) [17]; 16 g ai/ha, 0 to 100 scale",0
same,Corn plant response rating (0-100),corn (Zea mays) [17]; [30],50
same,"Pigweed, Palmer plant response rating","[18]; 16 g ai/ha, 0 to 100 scale",0
same,"Pigweed, Palmer plant response rating (0-100)",[18]; [30],30
same,Blackgrass plant response rating,"[19]; 16 g ai/ha, 0 to 100 scale",20
same,Blackgrass plant response rating (0-100),[19]; [30],30
same,"Oat, Wild plant response rating","[20]; 16 g ai/ha, 0 to 100 scale",0
same,"Oat, Wild plant response rating (0-100)",[20]; [30],30
same,"Foxtail, Green plant response rating","[21]; 16 g ai/ha, 0 to 100 scale",0
same,"Foxtail, Green plant response rating (0-100)",[21]; [30],80
same,Ragweed plant response rating,"[22]; 16 g ai/ha, 0 to 100 scale",0
same,Ragweed plant response rating (0-100),[22]; [30],0
same,Kochia plant response rating,"kochia (Bassia scoparia) [23]; 16 g ai/ha, 0 to 100 scale",0
same,Kochia plant response rating (0-100),kochia (Bassia scoparia) [23]; [30],10
same,Soybean plant response rating,"soybean (Glycine max) [24]; 16 g ai/ha, 0 to 100 scale",0
same,Soybean plant response rating (0-100),soybean (Glycine max) [24]; [30],0
same,Wheat plant response rating,"[25]; 16 g ai/ha, 0 to 100 scale",20
same,Wheat plant response rating (0-100),[25]; [30],90
same,Barnyardgrass plant response rating,"[26]; 16 g ai/ha, 0 to 100 scale",0
same,Barnyardgrass plant response rating (0-100),[26]; [30],40
same,"Ryegrass, Italian plant response rating","[27]; 16 g ai/ha, 0 to 100 scale",0
same,"Ryegrass, Italian plant response rating (0-100)",[27]; [30],70
